# Legend:
# Assay type in all cases: in vivo, rat
# [1] = tested on: MIA model of osteoarthritis in rats; experiment: Monosodium iodoacetate (MIA) model of osteoarthritis pain; details: 3, 10 and 30 mg/kg orally; one hour after dosing; FIG. 2
# Source text: Injection of monosodium iodoacetate (MIA) into a joint (Kalbhen, 1987) inhibits the activity of glyceraldehyde-3-phosphate dehydrogenase in chondrocytes, resulting in disruption of glycolysis and eventually in cell death. The progressive loss of chondrocytes results in histological and morphological changes of the articular cartilage, closely resembling those seen in osteoarthritis patients.
# The osteoarthritis was induced in 200 g male Sprague Dawley rats. […]
# Typically during disease progression, there was an inflammation period of 0-7 days post-intra-articular injection followed by progressive degeneration of the cartilage and subchondral bone from days 14-55. […] Tactile allodynia was measured via von Frey assay, hind limb paw weight distribution was monitored using an incapacitence tester (Columbus Instruments, Columbus, Ohio, USA) and hind limb grip strength was measured using a grip strength meter (Columbus Instruments, Columbus, Ohio, USA). […] Hind paw weight distribution was determined by placing rats in a chamber so that each hind paw rests on a separate force plate of the incapacitence tester. The force exerted by each hind limb (measured in grams) is averaged over a 3 second period. Three measurements were taken for each rat, and the change in hind paw weight distribution calculated. […]
# [2] = tested on: paclitaxel-induced allodynia in Sprague Dawley rats; experiment: Paclitaxel-induced allodynia; details: 10 mg/kg orally
# Experimental: Therapy however is often associated with the unwanted side affects of painful peripheral neuropathy.
# Male Sprague Dawley rats [200-250 g](Harlan Laboratories Inc., Livermore, Calif.) were housed three per cage and maintained in a humidity-controlled (40-60%) and temperature-controlled (68-72° F.) facility on a 12 h: 12 h light/dark cycle (lights on at 6:30 am) with free access to food (Harlan Teklad, Orange, Calif., Rodent Diet 8604) and water. Rats were allowed one week of habituation to the animal facility before starting treatment.
# Rats were treated intraperitoneally, with 2 mg/kg of paclitaxel (Sigma Aldrich, Saint Louis, Mo.) in 10% Cremophor vehicle (500 μL) on days 0, 2, 4, and 6.
# Tactile allodynia was tested using von Frey filaments. Briefly, the von Frey assay was performed using the standardized up down method with von Frey filaments, that determine the tactile sensitivity of the paw. By applying the increasingly or decreasingly thicker filaments to the paw in a logarithmic scale of actual force, a linear scale of perceived intensity is determined.
# Eight days after the start of paclitaxel dosing, a baseline measurement (von Frey assay) was performed prior to dosing of compounds. […] As a positive control, rats were dosed intraperitoneally with 100 mg/kg gabapentin in water. The dosing volume for oral and peritoneal treatment was 500 μL. […]
# [3] = tested on: FCA-induced hyperalgesia in rats; experiment: FCA-induced hyperalgesia model of inflammatory pain; details: 0.1, 1, 3, 10 and 30 mg/kg orally; 1 h post dosing; Analgesy-Meter; FIG. 1
# Experimental: Male Sprague Dawley rats from Harlan (200-225 g when received) were used. Upon arrival, rats were housed 4 per cage in shoe-box polycarbonate cages with wire tops, wood chip bedding and suspended food and water bottles. Animals were acclimated for 5-7 days prior to being injected with Freund's complete adjuvant (FCA) (Sigma; catalog #5881).
# 2 days (48 h) before testing compounds, baseline readings of all rats were taken right before FCA injection. Rats were then injected with 50 μL FCA containing 1 mg/mL Mtb (Mycobacterium tuberculosis) in right hind footpad under inhalation anesthesia (isoflurane). 48 hours after FCA injection, readings were taken as pre-dosing baseline and then rats were dosed orally with 0.5 mL of vehicle or compound (0.5 mL per 250 g rat). Readings were taken again at 1 h post dosing. All readings were taken with an Analgesy-Meter (Ugo Basile) which measures mechanical hyperalgesia via paw pressure.
# FCA-induced hyperalgesia was tested with an Analgesy-Meter. Briefly, the Analgesy Meter applied an increasing pressure to the right hind paw. The paw withdrawal threshold was the pressure leading to withdrawal.
# Meanwhile a group of rats were dosed orally with 50 mg/kg of Diclofenac as a positive control. Readings were taken again at 1 h post dosing. Dosing volume was 500 μL per 250 g rat.
smiles,measurement,setting,value
"CC(C)(CO)NC(=O)c1nn(-c2ccc(F)cc2F)c2c1C[C@H]1C[C@@H]21 [Compound 493, (1aR,5aR)-2-(2,4-Difluoro-phenyl)-1a,2,5,5a-tetrahydro-1H-2,3-diaza-cyclopropa[a]pentalene-4-carboxylic Acid (2-Hydroxy-1,1-dimethyl-ethyl)-amide]",Increase in paw withdrawal threshold (PWT) in comparison with vehicle,[1],exhibiting therapeutic efficacy
same,time of maximum efficacy post-dosing,[2]; time course,1 h
same,increase in paw withdrawal threshold (PWT) in comparison with vehicle and gabapentin,"[2]; von Frey 30, 60 and 180 minutes after dosing, FIG. 3",exhibiting therapeutic efficacy
same,increase in paw withdrawal threshold (PWT) in comparison with the vehicle,[3],exhibited therapeutic efficacy

# — US9492447B2, “Cannabinoid receptor modulators” (Arena Pharmaceuticals, Inc., priority 2011, dated 2016)
